Assay results taken from patent publication US6420371B1, “Quinazolinone-containing pharmaceutical compositions for prevention of neovascularization and for treating malignancies” (Madasit Medical Research Services & Development Co., Ltd., priority 1997, dated 2002).
Values joined by “and” are separate entries in the source; they are usually repeats but may differ in a detail not shown here. Identical values can stand only once. Like-named read-outs stand apart in the source and are kept apart here.

How the values were obtained:
[1] = tested on: rat mesengial cells; assay: Sulfate and glycine incorporation into rat mesengial cell ECM; assay type: cell-based; conditions: for inhibition at 0.05 µg/mL: 50 ng/ml Halofuginone; for inhibition at 0.2 µg/mL: 200 ng/ml Halofuginone
Protocol: Rat […] grown to confluency, 24 hours after seeding. The cells were then cultured with or without Halofuginone in the presence of either Na2^35SO4 (FIGS. 9A and 9B) or ^14C-glycine (FIGS. 9C and 9D). Eight days after sending, the cell layer was dissolved to expose the underlying ECM, washed and digested with collagenase to determine the effect of Halofuginone on CDP proteins, as shown in FIGS. 9A and 9C. The remaining material was digested with trypsin and subjected to β-scintillation counting to determine the effect of halofuginone on NCDP proteins, as shown in FIGS. 9B and 9D.

[2] = tested on: corneal neovascularization; assay: Murine corneal angiogenesis model (bFGF pellet); assay type: in vivo, mice; set-up: VL (maximum vessel length of the neovascularization zone): unit not given here; conditions: 2 μg/mouse/day i.p. for 5 days
Protocol: A murine corneal angiogenesis model was used to evaluate the inhibitory effect of Halofuginone in vivo. The angiogenic factor bFGF was applied into a corneal pocket in a pellet made of a slow release polymer, as described below, and Halofuginone (2 μg/mouse/day) was administered i.p. for 5 consecutive days. The pellets were made of the slow-release polymer Hydron (polyhydroxyethylmethacrylate [polyHEMA], Interferon Sciences, N.J.) containing sucralfate alone, or sucralfate and bGFG. A suspension of sterile saline 10 μg recombinant bFGF plus 10 mg of sucralfate was prepared and speed vacuumed for 5 minutes. To this suspension, 10 μl of 12% Hydron in ethanol was added. The suspension was then deposited onto an autoclave sterilized, 15×15 mm piece of nylon mesh (TETKO, 3-300/50, approximate pore size 0.4×0.4 mm) and embedded between the fibers resulting in a grid of 10×10 squares. Both sides of the mesh were then covered with a thin layer of Hydron to hydrophobically stabilize the pellet during implantation. These layers were allowed to dry on a sterile petri dish for 30 minutes. Subsequently, the fibers of the mesh were pulled apart under a microscope, and about 30-40 uniformly sized pellets of 0.4×0.2×0.2 mm, containing approximately 80-100 ng bGFG per pellet, were collected. Such pellets can be stored frozen at −20° C. for several weeks without loss of bioactivity. C57B⅙ mice of about 7-9 weeks of age were anesthetized with methoxyflurane. The eyes were topically anesthetized with 0.5% proparacaine, and the globe was proposed with a jeweler's forceps. A central, intrastromal linear keratotomy of approximately 0.6 mm length was performed with a surgical blade and a lamellar micropocket was dissected towards the temporal limbus. The temporal extent of the packet was within 0.7-1.0 mm of the limbus. A single pellet was then placed on the corneal surface at the base of the pocket with jeweler's forceps, and using one arm of the forceps, the pellet was advanced toward the temporal end of the pocket. Antibiotic ointment (erythromycin) was applied once to the operated eye, not only to prevent infection, but also to decrease irritation of the irregular ocular surface. […] On post-operative day 5, mice were anesthetized with methoxyflurane, the eyes were proptosed, and the maximum vessel length (VL) of the neovascularization zone extending from the base of the limbal vascular plexus toward the pellet was measured with a linear reticule through the slit lamp. The contiguous circumferential zone of neovascularization (CH) was measured as clock hours with a 360 degree reticule. […] The area of neovascularization was calculated according to the following formula: [formula] where A is area, CH is contiguous circumferential zone of neovascularization and VL is maximal vessel length.

[3] = tested on: human leiomyosarcoma tumor cells; assay: Proliferation ([3H]thymidine incorporation) of human leiomyosarcoma tumor cells; assay type: cell-based
Protocol: Samples of human leiomyosarcoma tumors were obtained from women undergoing surgical hysterectomy, as described [R. S. Mangrulker, et al., ibid.]. Minced tissue was placed into 20 ml cold homogenization buffer: 1 M NaCl, 10 mM Tris (pH 7.4), 1 mM EDTA, 1 mM benzamidine, 0.1% CHAPS, 0.01% Aprotinin (Sigma), 10 μg/ml leupeptin, 1 mM AEBSF [R. S. Mangrulker, et al., ibid]. Samples were homogenized for 2 min and centrifuged at 12000 a g for 60 min at 4° C. The supernatants were diluted 1:5 with 10 mM Tris (pH 7.4) to a final volume of 100 ml and filtered with 0.45 μm nylon fibers. Cells were plated and maintained in DMEM plus 10% calf serum. The cells remained viable over a number of passages but were used at passages 2 or 3. For proliferation assays, cells were plated in 96-well plates at 10,000 cells/well an 200 μl medium (DMEM with 4.5 G/L glucose, 10% calf serum. 1% glutamine, 1% penicillin/streptomycin) and incubated 2 days until confluent. […] The medium was changed to DMEM with 0.5%calf serum, 1 μM insulin and 5 μM transferrin. After 24 h, the samples (5-10 μl) were added and after an additional 24 h, [^3H]thymidine (1 μCi/well) was added to each well. After 36-48 h incubation, the cells were fixed with methanol, and the DNA was precipitated with 5% trichloroacetic acid. The cells were lysed with 150 μl/well of 0.3 N NaOH, transferred to scintillation vials, and counted on a β-counter. […] The effect of Halofuginone on proliferation of HB-EGF (Heparin-Binding Epidermal Growth Factor) and serum-stimulated leiomyosarcoma cells was then examined. The leiomyosarcoma tumor cells were growth-arrested by 48 h incubation in medium containing 0.5% FCS. The cells were then exposed (24 h) to either 10% FCS or 10 ng/ml HB-EGF in the absence or presence of 10 ng/ml Halofuginone. [^3H]thymidine was then added and DNA synthesis measured 36 h later.

[4] = individual mice, post-operative day 5

`O=C(CC1NCCCC1O)Cn1cnc2cc(Br)c(Cl)cc2c1=O` (centres unmarked) [Halofuginone] showed an inhibition at 0.05 µg/mL ([1]; read-out: inhibition of glycine incorporation, CDP proteins) of about 80%, an inhibition at 0.05 µg/mL ([1]; read-out: inhibition of glycine incorporation, NCDP proteins) of about 80% and an inhibition at 0.2 µg/mL ([1]; read-out: inhibition of sulfate incorporation, CDP proteins) of about 30%. For the same molecule, the inhibition at 0.2 µg/mL ([1]; read-out: inhibition of sulfate incorporation, NCDP proteins) was about 70%, the “inhibition of neovascularization area vs control” value [2] was “about 29%” and the “average area of neovascularization” value ([2]; n=7, calculated from CH and VL) was 1.90 mm^2. For the same molecule, the “CH (contiguous circumferential zone of neovascularization)” value [2, 4] was 3.5 clock hours and 3 clock hours (3×) and 2.5 clock hours and 4 clock hours and 1 clock hours, the “VL (maximum vessel length of the neovascularization zone)” value [2, 4] was 1 (3×) and 1.1 and 1.2 and 0.9 and the “inhibition of cell proliferation induced by HB-EGF” value ([3]; 10 ng/ml HB-EGF, 10 ng/ml Halofuginone, growth-arrested cells) was “complete inhibition”. The “inhibition of cell proliferation induced by serum” value ([3]; 10% FCS, 10 ng/ml Halofuginone, growth-arrested cells) was “complete inhibition” and the inhibition at 0.0025 µg/mL ([3]; Homo sapiens, 2.5 ng/ml Halofuginone (FIG. 11A)) was 60 to 70%.
